# Results: PubChem BioAssay (NCI)
# “And” between values parts separate entries of the source, which are not always exact repeats. Identical values can stand only once.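 Method: 48-hour compound exposure of cells in 96-well plates, five concentrations, linear interpolation of endpoints. Abbreviation: GI50, concentration required for 50% inhibition of growth. The concentration for full growth arrest is given as TGI.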
# Tested on: RXF 393 renal
# Assay: growth of human tumour cells (NCI), 48 h
SMILES,GI50,TGI
C=C1C(=O)O[C@H]2[C@H]1CC/C(CNC(=O)c1cc3ccccc3[nH]1)=C\CC[C@@]1(C)O[C@@H]21,1.01 µM,2.52 µM
Cc1ccc(NC2=C3CCCCC3OC2=O)cc1 (stereo not drawn),> 100 µM,> 100 µM
COc1cc2c(cc1OC)C(Cl)C(c1ccc(F)cc1)=C2Cl (stereo not drawn),,30.1 µM
CN(C)c1ccc(/C=N/NC(=S)Nc2ccccc2)cc1,,> 100 µM
CN(C)CC1CCC/C1=N/OC(=O)c1ccccc1 (stereo not drawn),,> 100 µM
CCOC(=O)C1Sc2ccccc2N=C1C (stereo not drawn),,> 100 µM
COC1=CC(=O)C(C2(OC(C)C)OC(=O)C(Cl)=C2Cl)=CC1=O (stereo not drawn),,> 100 µM
O=C(NC1C=CCC2C(=O)N(c3ccccc3)C(=O)C12)OCc1ccccc1 (stereo not drawn),,> 100 µM
CCC(C)SC1SCC2C(=O)N(C)C3(CC3C)C(=O)OCC(NC(=O)c3nc4ccccc4cc3O)C(=O)NC(C)C(=O)N(C)C1C(=O)N(C)C1(CC1C)C(=O)OCC(NC(=O)c1nc3ccccc3cc1O)C(=O)NC(C)C(=O)N2C (stereo not drawn),,0.000154 µM
Cc1[cH-]c(=O)n(-c2ccccc2)n1.[Au+].[Au].c1ccc([PH+](c2ccccc2)c2ccccc2)cc1.c1ccc([PH+](c2ccccc2)c2ccccc2)cc1,0.756 µM and 6.89 µM,3.32 µM and 28.5 µM
CC1(C)CC(c2c[nH]c3ccccc23)=CC2=Nc3ccccc3C21O (stereo not drawn),,> 100 µM
CN1C(=O)C(=O)N2c3ccc(Cl)cc3C3(c4ccccc4)N=CC12O3 (stereo not drawn),,6.34 µM
N#CCCC[Si]12OCCN(CCO1)CCO2,,> 100 µM
O=C(/C=C/c1c(O)ccc2ccccc12)c1ccc([N+](=O)[O-])cc1,,61.8 µM
CN1CCN(c2ccc(Nc3ncc(Cl)c(NC[C@@H]4CCCO4)n3)cc2)CC1,0.746 µM,3.42 µM

# Tested on: HOP-92 NSCLC
# Assay: growth of human tumour cells (NCI), 48 h
SMILES,TGI,GI50
C[C@@]1(O)CC[C@]2(C)C3CCCC3[C@H]12 (stereo partly drawn),> 100 µM,
COc1ccc(Cn2c(Br)c3c(c2Br)-c2nc(N)sc2CC3)cc1,14 µM,2.24 µM
CC(=O)[O-].CC(=O)[O-].O=C(N/N=C/c1cc(Cl)cc(Cl)c1O)c1ccncc1.[Cu+2],> 100 µM,> 100 µM
O=C(Nc1nc(=S)[nH][nH]1)C(=O)C(C(=O)c1ccc2ccccc2c1)C1OC(=O)c2ccccc21 (stereo not drawn),73.7 µM,
Cc1nnc2ccnn2c1C,> 100 µM,> 100 µM
CCOC(=O)C1=C(C)N(NC(=O)Nc2ccccc2)C2(N)N(NC(=O)Nc3ccccc3)C(C)=C(C(=O)OCC)C12C(=O)OCC (stereo not drawn),42.8 µM,
O=C(O)CSc1n[nH]c(-c2ccccc2O)n1,> 100 µM,
Cc1nc(-c2nc(C)c(C(=O)NNC(=O)C[n+]3ccccc3)s2)sc1C(=O)NNC(=O)C[n+]1ccccc1,> 100 µM,
CN(C)C=Nc1nc(=O)n(C2CCC(CO)O2)cc1F (stereo not drawn),> 100 µM,
Cc1ccc(S(=O)(=O)N2CCC2c2ccccc2)cc1 (stereo not drawn),78.8 µM,
CCCOc1nc(N)c2cnn(C3CCCCO3)c2n1 (stereo not drawn),> 100 µM,
C[C@@H]1CC[C@H]2C(C)(C)[C@H]3C[C@@]12CC[C@@]3(C)O,> 100 µM,
COc1ccc(/C=C/COC(C)=O)cc1OC,> 100 µM,
C=C(C)C(=O)O[C@@H]1C[C@@]2(C)O[C@@H]2C[C@H](O)/C(C)=C/[C@H]2OC(=O)C(=C)[C@@H]21,> 100 µM,
Cc1ccc(-c2nc(N3CCNCC3)c3oc(-c4ccc(C)cc4)nc3n2)cc1,26.5 µM,11.5 µM
[O-][Cl+3]([O-])([O-])[O-].[O]=[Ru]=[O].c1ccc(-c2ccccn2)nc1.c1ccc(-c2ccccn2)nc1,> 100 µM,> 100 µM
C=C1C(=O)O[C@H]2[C@H]1CC/C(CNC(=O)c1cc3ccccc3[nH]1)=C\CC[C@@]1(C)O[C@@H]21,3.46 µM,1.57 µM
Cc1cc2c(cc1C)[n+](=O)c(C(=O)c1ccccc1)c(C(F)F)n2[O-],> 100 µM,37.7 µM
COc1cc2c(cc1OC)C(Cl)C(c1ccc(F)cc1)=C2Cl (stereo not drawn),22.6 µM,
CN(C)c1ccc(/C=N/NC(=S)Nc2ccccc2)cc1,> 100 µM,
O=C1C(C(Nc2ccccc2)c2ccccc2)=C([O-])c2ccccc21.O=C1C(C(Nc2ccccc2)c2ccccc2)=C([O-])c2ccccc21.[Cu+2] (stereo not drawn),> 100 µM,40.9 µM
CN(C)CC1CCC/C1=N/OC(=O)c1ccccc1 (stereo not drawn),> 100 µM,
CCOC(=O)C1Sc2ccccc2N=C1C (stereo not drawn),> 100 µM,
COC1=CC(=O)C(C2(OC(C)C)OC(=O)C(Cl)=C2Cl)=CC1=O (stereo not drawn),> 100 µM,
O=C(NC1C=CCC2C(=O)N(c3ccccc3)C(=O)C12)OCc1ccccc1 (stereo not drawn),> 100 µM,
CCC(C)SC1SCC2C(=O)N(C)C3(CC3C)C(=O)OCC(NC(=O)c3nc4ccccc4cc3O)C(=O)NC(C)C(=O)N(C)C1C(=O)N(C)C1(CC1C)C(=O)OCC(NC(=O)c1nc3ccccc3cc1O)C(=O)NC(C)C(=O)N2C (stereo not drawn),0.000585 µM,
